One test addresses T1, peanut lectin (Arachis hypogaea, UniProt P02872).
T1 construct: purchased Sigma (St. Louis, Mo.)
Nature of the test: Flow immunocytometry of peanut lectin binding to lactose-conjugated microspheres. How it is done:
Bishydrazide glycoconjugates can be directly attached onto surface-active substrates for the selective capture of lectins and subsequent binding immunoassays. For example, lactosebishydrazide 6 was attached onto NHS-activated latex microspheres in order to measure the binding affinity of peanut lectin by flow immunocytometry (Kd)) 50 nM), using a FITC-labeled secondary antibody for fluorescence detection (FIGS. 12A and 13). […] However, in some cases the use of carrier proteins such as BSA may be more convenient for surface functionalization by simple physisorption.
For flow cytometry, carboxylic acid functionalized microspheres were conjugated to lactose-bishydrazide 6 via standard EDC coupling for 16 hours at room temperature, followed by multiple washes with PBS. The lactose-conjugated microspheres were dispersed in PBS (1.2 mL) and split into several Eppendorf tubes, which were incubated with increasing concentrations of peanut lectin in the presence or absence of 100-fold excess lactose. After incubating for 2 hours at room temperature, tubes were rinsed and subjected to sequential incubation with anti-lectin rabbit IgG and anti-rabbit FITC IgG as described above. The microspheres were then analyzed for fluorescent immunolabeling using a flow cytometer (Cytomics F500, Beckman Coulter, 10^4 microspheres/sample). […]

The next test concerns Acinetobacter baumanii. Nature of the test: PathoChip detection sensitivity. The class given is binding. The following applies: ligand conjugated to BSA.
Another test deals with Mycobacterium smegmatis. Nature of the test: PathoChip detection sensitivity. The class given is binding. The following applies: ligand conjugated to BSA.
In test [1] the test system is Pseudomonas aeruginosa. In words: PathoChip detection sensitivity. The class given is binding. The settings on record: ligand conjugated to BSA.
The test system of a further test is Shigella spp. In words: PathoChip detection sensitivity. The following applies: ligand conjugated to BSA. The class given is binding.
The next test has as its system Chlamydia trachomatis. In words: PathoChip detection sensitivity. The settings on record: ligand conjugated to BSA. The class given is binding.
For a further test, the system named is Staphylococcus aureus. In words: PathoChip detection sensitivity. The settings on record: ligand conjugated to BSA. The class given is binding.
Another test has as its system Vibrio cholerae. Nature of the test: PathoChip detection sensitivity. The class given is binding. The settings on record: ligand conjugated to BSA.
A further test deals with Y. enterocolitica. Nature of the test: Capture on FOB-BSA micropatterned chips, darkfield and FFT. The class given is binding, Yersinia enterocolitica. The settings on record: NHS-activated codelink slide, 10^8 cfu/ml.
In the next test the test system is Streptococcus pneumonaie. In words: PathoChip detection sensitivity. The class given is binding. The settings on record: ligand conjugated to BSA.
Test [2] concerns Pseudomonas aeruginosa. In words: Capture of Pseudomonas on glycan-patterned substrates, darkfield and FFT. The class given is binding. The source says:
A similar approach was used to generate photopatterned arrays of the pulmonary trisaccharide and 2′-fucosyllactose on BSA-coated substrates, using glycan-bishydrazide-ANB conjugates 16 and 17, respectively. These micropatterned substrates were exposed to the opportunistic pathogen Pseudomonas aeruginosa at 10^6-10^8 cfu/mL, then washed and imaged by optical darkfield microscopy to visualize patterns of glycan-immobilized bacteria in a label-free manner (FIGS. 15-17). […] Furthermore, only live Pseudomonas were captured by the trisaccharide ligands; exposing the bacteria to UV irradiation for 2 hours prior to their introduction resulted again in no observable pattern (FIG. 18). […]
Glycan-bishydrazide conjugates could also be patterned onto substrates by microcontact printing (μCP), a well-established “soft lithography” technique based on microfabricated polydimethylsiloxane (PDMS) stamps for the physical transfer of organic or biomolecular ligands, including glycans (Kumar and Whitesides, Appl. Phys. Lett. 1993, 63:2002-2004; Bernard et al., Adv. Mater. 2000, 12:1067-1070; Inerowicz et al., Langmuir 2002, 18:5263-5268; Godula et al., Angew. Chem., Int. Ed 2009, 48:4973-4976; Wendeln et al., Langmuir 2010, 26:4933-4940). […] The substrates were blocked then exposed for 1 hour to Pseudomonas at 10^2-10^8 cfu/mL, then evaluated for evidence of patterned pathogen capture (FIGS. 19, 19A). […]

pKd: −log10 of the molar value.

T1 sequence (P02872 24-273): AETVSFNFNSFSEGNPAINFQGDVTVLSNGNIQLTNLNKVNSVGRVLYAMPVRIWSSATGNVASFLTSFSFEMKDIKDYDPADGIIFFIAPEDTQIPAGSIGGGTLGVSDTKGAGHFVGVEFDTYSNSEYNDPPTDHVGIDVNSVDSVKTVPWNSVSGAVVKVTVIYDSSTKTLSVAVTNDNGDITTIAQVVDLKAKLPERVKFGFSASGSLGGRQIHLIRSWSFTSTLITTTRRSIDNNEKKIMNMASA

`NNC(=O)COCCOCCOCCOCCOCCOCCOCC(=O)NN[C@@H]1OC(CO)[C@@H](OC2OC(CO)[C@H](O)[C@H](O)[C@@H]2O)[C@H](O)C1O` (stereo partly shown) [conjugate 6, Hexa(ethylene glycol)-linked lactose-bishydrazide conjugate]: the pKd – broadly, −log10 of the Kd, conventionally taken in molar units – at peanut lectin (6 attached to NHS-activated latex microspheres, FITC secondary antibody) is 7.30. For the same compound, the “increase of Kd in competition assay” value at peanut lectin (against 1 mM lactose) turned out to be 10 fold.

On to heparin, for which the “sensitivity, Acinetobacter baumanii” value in the test on Acinetobacter baumanii is listed as 1E6 cfu/mL. Moreover, the “sensitivity, Mycobacterium smegmatis” value in the test with Mycobacterium smegmatis is given as 1E6 cfu/mL. In addition, the “sensitivity, Pseudomonas aeruginosa” value in the test on Pseudomonas aeruginosa [1] came to 1E6 cfu/mL. In addition, the “sensitivity, Shigella spp.” value in the test with Shigella spp. is reported as 1E6+ cfu/mL. The “sensitivity, Chlamydia trachomatis” value is recorded as 1E3 cfu/mL in the test on Chlamydia trachomatis and 10^3 cfu/mL in the test with Chlamydia trachomatis (listed as Heparin). Further, the “sensitivity, Staphylococcus aureus” value with Staphylococcus aureus stood at 1E6 cfu/mL. Further, the “sensitivity, Vibrio cholerae” value with Vibrio cholerae is listed as 1E6+ cfu/mL.

In the case of `CC(=O)N([O-])CCCCCNC(=O)CCC(=O)N([O-])CCCCCNC(=O)CCC(=O)N([O-])CCCCCN.[Fe+3]` [FOB, ferrioxamine], the “bacteria binding with ligand attached directly, no BSA linker” value in the test with Y. enterocolitica was “less bacteria binding onto the pattern than in the presence of BSA”.

In the case of Hemin, in the test on Pseudomonas aeruginosa [1], the “sensitivity, Pseudomonas aeruginosa” value came to 1E3 cfu/mL. In the test on Streptococcus pneumonaie, the “sensitivity, Streptococcus pneumonaie” value amounted to 1E5 cfu/mL. In addition, in the test with Staphylococcus aureus, the “sensitivity, Staphylococcus aureus” value amounted to 1E3 cfu/mL. In addition, the “sensitivity, Vibrio cholerae” value in the test with Vibrio cholerae is listed as 1E6/1E6 cfu/mL.

Turning to “Hexa(ethylene glycol)-Linked 2′-Fucosyllactose-Bishydrazide Conjugate [conjugate 8]”, in the test on Pseudomonas aeruginosa [2], the “avidity of Pseudomonas cultures relative to pulmonary trisaccharide 7” value was “much lower avidity”.

The record behind these values is patent publication US9250238B2, “Pathogen detection” (priority 2010, dated 2016).
